# “Also recorded” adds a separate entry of the source. Marks after values point to notes of the source that are not given here.
# What was measured:
# [1] = Fatty acid analysis of blood cell phospholipids and plasma lipid fractions after ingestion of test fatty acids; assay type: in vivo, human
# Excerpt: (§1) 45 males and post-menopausal female—19–65 years of age, normolipidemic, and with a body mass index (BMI) in the range 20 to 30, were recruited. Exclusion criteria included bleeding disorders, hypertension, inflammatory disorders, active gastrointestinal diseases, chronic use of low dose aspirin, consumption of restaurant or takeaway evening meals more than twice per week, use of dietary supplements rich in n-3 or n-6 fatty acids, habitual consumption of more than 1 fish meal per month, and plasma phospholipid EPA+DHA levels>7.9% of total fatty acids (level achieved in the study group was 4.9±1.0% of total fatty acids).
# (§2) Following a 3-week run-in period, subjects ingested either ALA, SDA, EPA supplied as ethyl esters in capsules. Intakes were 0.75 g/day for 3 weeks followed by 1.5 g/day for the subsequent 3 weeks.
# At each visit, 36 mL of blood was taken by venepuncture after an overnight fast. Blood was aliquoted into various tubes for the following procedures.
# Blood (20 mL) was added to tubes containing 4 mL 4.5% EDTA in water and 4 mL—6% dextran in normal saline, pH 7.0. Erythrocytes were allowed to sediment under gravity at 37° C. for 30 min. The leucocyte-rich plasma was layered onto LYMPHOPREP, density 1.077 (Nycomed Pharma, Oslo) and centrifuged at 110 g for 10 min to separate leucocytes from the platelets, which were removed. The gradient was further centrifuged at 200 g for 20 min to separate the neutrophils from mononuclear cells, which were removed.
# Samples were processed for fatty acid analysis as described in Mantzioris et al., Am. J. Clin. Nutr., 72:42–8 (2000). Plasma, washed platelet and mononuclear cell pellets were stored at −80° C. Erythrocyte pellets were treated fresh with chloroform:isopropanol (2:1) and the lipid extracts stored at 4° C. Plasma, platelet and mononuclear cell pellets were extracted with chloroform:methanol. The cellular and plasma lipid extracts were fractionated by thin-layer chromatography. For the cellular extracts, the phospholipid fraction was retained and for the plasma extracts, the phospholipid, cholesterol ester, and triglyceride fractions were retained. These were transesterified by methanolysis (1% H2SO4 in methanol at 70° C. for 3 h). Fatty acid methyl esters were separated and quantified with a HEWLETT-PACKARD 6890 gas chromatograph equipped with a 50 m capillary column coated with BPX-70 (0.25 μm film thickness; SGE Pty Ltd, Victoria, Australia) (see Mantzioris et al., supra). Fatty acid standards were obtained from NuChek Prep Inc. (Elysian, Minn.) and included stearidonic acid obtained from Sigma Aldrich Pty Ltd. (Castle Hill, NSW, Australia). All organic solvents contained butylated hydroxy anisole (0.005%) as an antioxidant.
# TNF-α = TNF-α synthesis in LPS-treated whole blood; assay type: in vivo, human; conditions: for TNF-α synthesis in LPS-treated whole blood: mean ± SD
# Procedure: as §2
# (§3) Blood (4 mL) was added to heparinised tubes, bacterial lipopolysaccharide (LPS) was added (200 ng/mL), and the mixture was incubated at 37° C., 5% CO2, for 24 h. Plasma was collected and assayed for prostaglandin E2 (PGE2) by radioimmunoassay (RIA), interleukin-1β (IL-1β) and tumor necrosis factor-α (TNF-α) by ELISA, as described in Mantzioris et al., supra.
# IL-1β = IL-1β synthesis in LPS-treated whole blood; assay type: in vivo, human; conditions: for IL-1β synthesis in LPS-treated whole blood: mean ± SD
# Procedure: as §2, §3
# prostaglandin E2 (PGE2) = experiment: PGE2 synthesis in LPS-stimulated whole blood; assay type: in vivo, human; conditions: for PGE2 synthesis in LPS-stimulated whole blood: mean ± SD
# Procedure: as §2, §3
# C-reactive protein = experiment: Clinical study of SDA on down-regulating C-reactive protein; assay type: in vivo, human; conditions: Example 3, described in present tense; about 0.75 then 1.5 g/day
# Excerpt: as §1, with “Approximately 35–50” for “45”, “female -19–65” for “female—19–65”, “are” for “were”, “include” for “included”, “acids. Subjects are randomly allocated to one” for “acids (level achieved in the study group was 4.9±1.0%”, “three groups, designated ALA, SDA, and EPA. […]” for “total fatty acids).”
# C-reactive protein (Hs-CRP) in plasma can be analyzed by use of latex-enhanced immunonephelometric assay on a BN II analyzer (Rifai et al. Clinical efficacy of an automated high-sensitivity C-reactive protein assay. Clin. Chem […];45:2136). […]
# Subjects are weighed at each visit for change in weight during the trial. […] Fatty acids are analyzed between dietary groups in EPA concentration in erythrocyte or plasma phospholipids. The effect of ingestion of EPA, ALA or SDA at 0.75 g/day (weeks 0 to 3) or 1.5 g/day (weeks 3 to 6) is determined with respect to EPA concentration in the phospholipid fractions of erythrocytes and plasma. Effects on DPA concentration in the phospholipid fractions of erythrocytes and plasma are also analyzed.
# leukotrienes = conditions: U.S. Pat. No. 5,158,975; cited from earlier work
# [2] = Week 3 (after 0.75 g/day for 3 weeks)
# [3] = Week 6 (after 1.5 g/day for 3 weeks)
# [4] = Week −3 (start of run-in, before dosing)
compound,measurement,setting,value
"CC/C=C\C/C=C\C/C=C\C/C=C\CCCCC(=O)O [SDA, stearidonic acid]",Effect on EPA concentration in the phospholipid fractions of erythrocytes and plasma,[1]; 0.75 g/day (weeks 0 to 3),significantly increased
same,Effect on DPA concentration in the phospholipid fractions of erythrocytes and plasma,[1]; 1.5 g/day,significantly increased; also recorded: elevated
same,Effect on EPA concentration in the phospholipid fractions of erythrocytes and plasma,[1]; 1.5 g/day (weeks 3 to 6),significantly increased; also recorded: elevated
same,Effect on tissue levels of DHA (FIG. 1),"[1]; erythrocytes and plasma phospholipids, 1.5 g/day",not DHA
same,Efficiency relative to ALA at elevating tissue EPA levels,[1]; in humans,about four times more efficient than ALA
same,Effect on LPS-stimulated TNF synthesis,TNF-α; 1.5 g/day,statistically significant decreases
same,TNF-α synthesis in LPS-treated whole blood,TNF-α; Week 0 (baseline),43.7 ± 18.7^a ng/mL
same,TNF-α synthesis in LPS-treated whole blood,TNF-α; [2],37.7 ± 14.2^ab ng/mL
same,TNF-α synthesis in LPS-treated whole blood,TNF-α; [3],34.1 ± 12.0^b ng/mL
same,TNF-α synthesis in LPS-treated whole blood,TNF-α; [4],37.6 ± 14.6^ab ng/mL
same,Effect on LPS-stimulated IL-1β synthesis,IL-1β; 0.75 g/day or 1.5 g/day (either dose),significantly decreased
same,IL-1β synthesis in LPS-treated whole blood,IL-1β; Week 0 (baseline),94.7 ± 29.3^b ng/mL
same,IL-1β synthesis in LPS-treated whole blood,IL-1β; [2],81.4 ± 21.9^c ng/mL
same,IL-1β synthesis in LPS-treated whole blood,IL-1β; [3],77.8 ± 26.4^c ng/mL
same,IL-1β synthesis in LPS-treated whole blood,IL-1β; [4],106.9 ± 33.0^a ng/mL
same,Effect on LPS-stimulated PGE2 synthesis,prostaglandin E2 (PGE2); 1.5 g/day,no change
same,Effect on LPS-stimulated PGE2 synthesis,"prostaglandin E2 (PGE2); Visit 3, following ingestion of 0.75 g",statistically significant increases
same,PGE2 synthesis in LPS-stimulated whole blood,prostaglandin E2 (PGE2); Week 0 (baseline),*4.64 ± 1.09^a ng/mL
same,PGE2 synthesis in LPS-stimulated whole blood,prostaglandin E2 (PGE2); [2],6.26 ± 2.56^b ng/mL
same,PGE2 synthesis in LPS-stimulated whole blood,prostaglandin E2 (PGE2); [3],4.61 ± 0.95^a ng/mL
same,PGE2 synthesis in LPS-stimulated whole blood,prostaglandin E2 (PGE2); [4],3.97 ± 1.48^a ng/mL
same,Effect of SDA intake on C-reactive protein,C-reactive protein,decrease in C-reactive protein
same,Effect on biosynthesis of leukotrienes,leukotrienes,inhibit biosynthesis of leukotrienes
